pKi: −log10 of the molar value.
What was measured:
[1] = MRT in Wistar rat at 6.6 umol/kg, iv measured upto 24 hrs by LC-MS/MS analysis; type: ADME, organism-based; details: in vivo
[2] = Clearance in Wistar rat at 22 umol/kg, po measured upto 24 hrs by LC-MS/MS analysis; type: ADME, organism-based; details: in vivo
Coagulation factor X = Coagulation factor X (Homo sapiens, UniProt P00742); experiment: Inhibition of human activated Factor X using S-2765 as substrate incubated for 15 mins followed by substrate addition and measured after 1 hr by chromogenic assay
[3] = Volume of distribution in Wistar rat at 6.6 umol/kg, iv measured upto 24 hrs by LC-MS/MS analysis; type: ADME, organism-based; details: in vivo
Coagulation factor VII = molecular target: T1, Coagulation factor VII (Homo sapiens, UniProt P08709); experiment: Inhibition of human activated Factor VII using S-2288 as substrate incubated for 15 mins followed by substrate addition and measured after 1 hr by chromogenic assay
T1 sequence (P08709 whole entry): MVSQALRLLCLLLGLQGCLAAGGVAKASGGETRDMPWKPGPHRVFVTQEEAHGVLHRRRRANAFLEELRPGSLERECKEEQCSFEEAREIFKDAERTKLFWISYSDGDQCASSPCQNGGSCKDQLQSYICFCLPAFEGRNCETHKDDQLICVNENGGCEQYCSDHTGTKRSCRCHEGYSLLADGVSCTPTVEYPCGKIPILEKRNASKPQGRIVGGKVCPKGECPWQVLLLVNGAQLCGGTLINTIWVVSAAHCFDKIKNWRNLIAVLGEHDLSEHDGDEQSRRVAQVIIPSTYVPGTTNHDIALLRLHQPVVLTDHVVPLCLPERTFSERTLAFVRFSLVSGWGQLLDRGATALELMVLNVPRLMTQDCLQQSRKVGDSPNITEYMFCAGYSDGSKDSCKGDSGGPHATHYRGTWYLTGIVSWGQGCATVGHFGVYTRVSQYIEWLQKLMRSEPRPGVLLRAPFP

[4] = molecular target: Chymotrypsin (Rattus norvegicus); experiment: Inhibition of rat chymotrypsin using S-2586 as substrate incubated for 15 mins followed by substrate addition and measured after 1 hr by chromogenic assay
[5] = AUC (0 to infinity) in Wistar rat at 22 umol/kg, po measured upto 24 hrs by LC-MS/MS analysis; type: ADME, organism-based; parameters: dose 22 umol/kg, time infinity, route oral; details: in vivo
[6] = Clearance in Wistar rat at 6.6 umol/kg, iv measured upto 24 hrs by LC-MS/MS analysis; type: ADME, organism-based; details: in vivo
Trypsin = Trypsin (Homo sapiens, UniProt P07477+P07478+P35030); experiment: Inhibition of human trypsin using S-2222 as substrate incubated for 15 mins followed by substrate addition and measured after 1 hr by chromogenic assay; type: protein assay
Coagulation factor XII = molecular target: T2, Coagulation factor XII (Homo sapiens, UniProt P00748); experiment: Inhibition of human activated Factor XII using spectrozyme F XIIa as substrate incubated for 15 mins followed by substrate addition and measured after 1 hr by chromogenic assay
T2 sequence (P00748 whole entry): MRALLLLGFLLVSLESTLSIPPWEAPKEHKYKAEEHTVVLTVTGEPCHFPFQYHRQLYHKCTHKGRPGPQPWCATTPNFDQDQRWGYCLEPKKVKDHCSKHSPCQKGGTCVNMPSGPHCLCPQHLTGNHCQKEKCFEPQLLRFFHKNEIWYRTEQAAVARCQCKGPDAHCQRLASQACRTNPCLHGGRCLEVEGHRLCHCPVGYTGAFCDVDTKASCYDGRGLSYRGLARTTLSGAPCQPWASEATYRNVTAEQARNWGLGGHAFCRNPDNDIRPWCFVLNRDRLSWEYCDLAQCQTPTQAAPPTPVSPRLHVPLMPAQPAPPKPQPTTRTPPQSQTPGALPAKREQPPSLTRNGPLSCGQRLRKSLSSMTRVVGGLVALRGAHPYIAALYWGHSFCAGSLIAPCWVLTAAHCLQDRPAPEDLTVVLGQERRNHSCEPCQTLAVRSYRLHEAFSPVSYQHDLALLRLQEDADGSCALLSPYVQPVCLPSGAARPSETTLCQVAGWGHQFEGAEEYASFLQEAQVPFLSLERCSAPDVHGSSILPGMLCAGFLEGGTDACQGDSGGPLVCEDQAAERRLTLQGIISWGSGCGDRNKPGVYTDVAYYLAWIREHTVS

[7] = MRT in Wistar rat at 22 umol/kg, po measured upto 24 hrs by LC-MS/MS analysis; type: ADME, organism-based; details: in vivo
Coagulation factor XI = Coagulation factor XI (Homo sapiens, UniProt P03951); experiment: Inhibition of human activated Factor XI using S-2366 as substrate incubated for 15 mins followed by substrate addition and measured after 1 hr by chromogenic assay
[8] = molecular target: Tissue-type plasminogen activator (Homo sapiens, UniProt P00750); experiment: Inhibition of human tPA using […] tPA substrate incubated for 15 mins followed by substrate addition and measured after 1 hr by chromogenic assay
[9] = AUC (0 to infinity) in Wistar rat at 6.6 umol/kg, iv measured upto 24 hrs by LC-MS/MS analysis; type: ADME, organism-based; parameters: dose 6.6 umol/kg, time infinity, route intravenous; details: in vivo
[10] = Half life in Wistar rat at 22 umol/kg, po measured upto 24 hrs by LC-MS/MS analysis; type: ADME, organism-based; details: in vivo
[11] = molecular target: Urokinase-type plasminogen activator (Homo sapiens, UniProt P00749); experiment: Inhibition of human uPA using […] uPA substrate incubated for 15 mins followed by substrate addition and measured after 1 hr by chromogenic assay
[12] = Volume of distribution in Wistar rat at 22 umol/kg, po measured upto 24 hrs by LC-MS/MS analysis; type: ADME, organism-based; details: in vivo
Rattus norvegicus [13] = organism: Rattus norvegicus; further: test concentration or dose not given here
Rattus norvegicus [14] = organism: Rattus norvegicus; remark: listed apart in the source; further: test concentration or dose not given here
[15] = Half life in Wistar rat at 6.6 umol/kg, iv measured upto 24 hrs by LC-MS/MS analysis; type: ADME, organism-based; details: in vivo
Coagulation factor IX = Coagulation factor IX (Homo sapiens, UniProt P00740); experiment: Inhibition of human activated Factor IX using spectrozyme F IXa as substrate incubated for 15 mins followed by substrate addition and measured after 1 hr by chromogenic assay
[16] = Cmax in Wistar rat at 22 umol/kg, po measured upto 24 hrs by LC-MS/MS analysis; type: ADME, organism-based; parameters: dose 22 umol/kg, route oral; details: in vivo
Plasma kallikrein = Plasma kallikrein (Homo sapiens, UniProt P03952); experiment: Inhibition of human kallikrein using S-2302 as substrate incubated for 15 mins followed by substrate addition and measured after 1 hr by chromogenic assay
[17] = Oral bioavailability in Wistar rat at 22 umol/kg measured upto 24 hrs by LC-MS/MS analysis; type: ADME, organism-based; details: in vivo
Rattus norvegicus [18] = organism: Rattus norvegicus; remark: listed apart in the source; further: test concentration or dose not given here

Coagulation factor IX, sequence (P00740 47-191 limits assumed): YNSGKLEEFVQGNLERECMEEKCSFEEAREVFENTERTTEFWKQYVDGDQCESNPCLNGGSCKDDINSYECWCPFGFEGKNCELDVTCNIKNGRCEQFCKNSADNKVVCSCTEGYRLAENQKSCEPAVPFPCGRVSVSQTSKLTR
Coagulation factor IX, sequence (P00740 227-461 limits assumed): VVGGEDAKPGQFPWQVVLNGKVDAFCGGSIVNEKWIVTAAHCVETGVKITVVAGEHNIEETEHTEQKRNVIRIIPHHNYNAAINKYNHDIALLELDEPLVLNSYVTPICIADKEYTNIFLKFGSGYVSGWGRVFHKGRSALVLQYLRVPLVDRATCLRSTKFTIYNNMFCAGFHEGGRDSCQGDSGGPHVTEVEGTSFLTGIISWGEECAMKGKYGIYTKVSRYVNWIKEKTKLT
Coagulation factor XI, sequence (P03951 19-387 limits assumed): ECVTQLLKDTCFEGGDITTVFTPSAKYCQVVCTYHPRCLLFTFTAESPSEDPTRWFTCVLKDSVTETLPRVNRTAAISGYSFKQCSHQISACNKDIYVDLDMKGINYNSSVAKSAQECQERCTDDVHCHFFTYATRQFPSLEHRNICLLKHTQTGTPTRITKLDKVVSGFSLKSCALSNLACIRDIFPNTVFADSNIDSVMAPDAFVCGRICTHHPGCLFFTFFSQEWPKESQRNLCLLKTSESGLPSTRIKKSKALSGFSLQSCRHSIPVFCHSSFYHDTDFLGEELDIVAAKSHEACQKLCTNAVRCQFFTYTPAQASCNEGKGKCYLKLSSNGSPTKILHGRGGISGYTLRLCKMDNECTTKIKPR
Coagulation factor XI, sequence (P03951 388-625 limits assumed): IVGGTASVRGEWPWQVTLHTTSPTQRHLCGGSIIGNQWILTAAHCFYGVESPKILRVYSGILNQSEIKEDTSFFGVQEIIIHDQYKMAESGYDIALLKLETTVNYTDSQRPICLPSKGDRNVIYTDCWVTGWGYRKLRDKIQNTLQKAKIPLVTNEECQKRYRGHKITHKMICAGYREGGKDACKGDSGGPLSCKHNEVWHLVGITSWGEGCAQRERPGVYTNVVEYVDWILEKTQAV
Plasma kallikrein, sequence (P03952 20-390 limits assumed): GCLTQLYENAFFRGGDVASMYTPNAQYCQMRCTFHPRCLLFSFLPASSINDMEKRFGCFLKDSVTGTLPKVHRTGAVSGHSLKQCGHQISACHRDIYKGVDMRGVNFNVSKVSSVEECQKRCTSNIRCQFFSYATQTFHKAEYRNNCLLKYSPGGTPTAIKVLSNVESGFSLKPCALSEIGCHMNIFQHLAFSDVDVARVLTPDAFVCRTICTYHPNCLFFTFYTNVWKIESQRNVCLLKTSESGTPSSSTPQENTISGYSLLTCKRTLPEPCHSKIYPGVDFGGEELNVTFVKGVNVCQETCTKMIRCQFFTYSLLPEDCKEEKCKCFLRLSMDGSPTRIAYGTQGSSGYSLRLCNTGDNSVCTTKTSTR
Plasma kallikrein, sequence (P03952 391-638 limits assumed): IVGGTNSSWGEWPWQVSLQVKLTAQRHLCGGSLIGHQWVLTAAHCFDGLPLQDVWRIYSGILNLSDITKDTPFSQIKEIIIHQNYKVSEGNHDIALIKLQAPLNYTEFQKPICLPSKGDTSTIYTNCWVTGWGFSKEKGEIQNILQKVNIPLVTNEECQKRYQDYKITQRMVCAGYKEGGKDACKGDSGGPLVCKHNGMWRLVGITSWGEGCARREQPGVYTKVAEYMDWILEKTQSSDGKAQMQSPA
Tissue-type plasminogen activator, sequence (P00750 whole entry): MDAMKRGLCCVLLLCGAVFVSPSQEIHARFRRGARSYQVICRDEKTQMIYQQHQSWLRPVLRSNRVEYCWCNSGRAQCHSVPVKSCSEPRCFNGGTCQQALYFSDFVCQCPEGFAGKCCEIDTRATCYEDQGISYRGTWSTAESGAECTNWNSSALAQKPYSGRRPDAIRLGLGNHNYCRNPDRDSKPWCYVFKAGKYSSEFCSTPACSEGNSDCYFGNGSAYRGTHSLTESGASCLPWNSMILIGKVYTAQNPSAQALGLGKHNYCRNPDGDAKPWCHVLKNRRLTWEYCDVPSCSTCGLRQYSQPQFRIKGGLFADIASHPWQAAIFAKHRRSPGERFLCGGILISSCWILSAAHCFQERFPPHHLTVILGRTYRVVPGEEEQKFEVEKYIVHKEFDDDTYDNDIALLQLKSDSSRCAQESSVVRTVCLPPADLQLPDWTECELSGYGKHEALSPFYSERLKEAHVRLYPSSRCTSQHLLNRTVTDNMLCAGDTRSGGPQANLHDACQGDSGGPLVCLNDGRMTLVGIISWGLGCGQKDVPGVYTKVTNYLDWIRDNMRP
Coagulation factor X, sequence (P00742 41-179 limits assumed): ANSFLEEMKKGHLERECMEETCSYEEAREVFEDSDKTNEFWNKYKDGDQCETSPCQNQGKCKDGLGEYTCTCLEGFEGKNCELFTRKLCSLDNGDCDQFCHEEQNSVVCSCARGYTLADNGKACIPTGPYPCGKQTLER
Coagulation factor X, sequence (P00742 235-488 limits assumed): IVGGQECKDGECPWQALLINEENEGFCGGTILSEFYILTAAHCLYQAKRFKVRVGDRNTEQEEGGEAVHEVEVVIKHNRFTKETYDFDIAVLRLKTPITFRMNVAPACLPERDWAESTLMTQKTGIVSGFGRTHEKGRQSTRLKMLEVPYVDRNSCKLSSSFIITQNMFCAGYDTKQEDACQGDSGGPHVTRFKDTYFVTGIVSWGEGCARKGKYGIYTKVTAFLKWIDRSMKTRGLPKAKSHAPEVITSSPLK

| SMILES | MRT [1] | CL/F [2] | pKi (Coagulation factor X) | Vd [3] | pKi (Coagulation factor VII) | Ki [4] | AUC(0-inf) [5] | clearance [6] | Ki (Trypsin) | pKi (Coagulation factor XII) | MRT [7] | pKi (Coagulation factor XI) | pKi [8] | AUC(0-inf) [9] | half-life [10] | pKi [11] | Vd [12] | PT (Rattus norvegicus [13]) | TT (Rattus norvegicus [14]) | half-life [15] | also measured |
| --- | --- | --- | --- | --- | --- | --- | --- | --- | --- | --- | --- | --- | --- | --- | --- | --- | --- | --- | --- | --- | --- |
| CCOC(=O)[C@]1(C)CCC[C@@]2(C)[C@@H]3CC[C@@]4(C)C[C@]3(CC[C@@H]21)C/C4=N\OCC1(C)COC1 | 4.9 h | 35 mL/min | 7.55 | 4.3 L | 5.10 | 12.378 µM | 4810 ng·h/mL | 15 mL/min | 0.331 µM | 5.12 | 5.6 h | 5.71 | 5.55 | 3380 ng·h/mL | 4.2 h | 5.69 | 12.5 L | 18.2 s | 22 min | 3.4 h | pKi (Coagulation factor IX): 5.32; Cmax [16]: 728 ng/mL; pKi (Plasma kallikrein): 6.56; bioavailability [17]: 42.7%; APTT (Rattus norvegicus [18]): 20.6 s |
| CCOC(=O)[C@]1(C)CCC[C@@]2(C)[C@@H]3CC[C@@]4(C)C[C@]3(CC[C@@H]21)C/C4=N\OCc1ccsc1 | 4.6 h | 30 mL/min | 7.82 | 4 L | 4.94 | 16.262 µM | 5530 ng·h/mL | 15 mL/min | 2.13 µM | 5.03 | 4.1 h | 5.77 | 5.45 | 3410 ng·h/mL | 3.9 h | 5.35 | 10.2 L | 19.1 s | 25.5 min | 3.2 h | pKi (Coagulation factor IX): 4.71; Cmax [16]: 1250 ng/mL; pKi (Plasma kallikrein): 5.66; bioavailability [17]: 48.6%; APTT (Rattus norvegicus [18]): 21.3 s |

— ChEMBL document CHEMBL4311982, “Discovery of novel, potent, isosteviol-based antithrombotic agents” (Eur J Med Chem, 2019)
